Source: paper PMC3929664, “A Panel of Diverse Assays to Interrogate the Interaction between Glucokinase and Glucokinase Regulatory Protein, Two Vital Proteins in Human Disease” (PLoS ONE, 2014)
Where a name gives a salt, the structure may show the parent alone.

Tests used:
[1] = biological target: T1, GCK enzymatic reaction inhibited by GKRP (recombinant human GCK and GKRP) (Homo sapiens, UniProt P35557+Q14397); assay: Bioluminescence assay (ADP-Glo) of the GCK enzyme reaction with GKRP; format: biochemical; conditions: for LOPAC1280 screen outcome: 2 µM S6P; for response across formats (ADP only, GCK only, GCK-GKRP): 0.04 mM ADP, 4 nM GCK, 15 nM GCK with 15 nM GKRP
T1 construct: made in house
T1 sequence (P35557 1-465): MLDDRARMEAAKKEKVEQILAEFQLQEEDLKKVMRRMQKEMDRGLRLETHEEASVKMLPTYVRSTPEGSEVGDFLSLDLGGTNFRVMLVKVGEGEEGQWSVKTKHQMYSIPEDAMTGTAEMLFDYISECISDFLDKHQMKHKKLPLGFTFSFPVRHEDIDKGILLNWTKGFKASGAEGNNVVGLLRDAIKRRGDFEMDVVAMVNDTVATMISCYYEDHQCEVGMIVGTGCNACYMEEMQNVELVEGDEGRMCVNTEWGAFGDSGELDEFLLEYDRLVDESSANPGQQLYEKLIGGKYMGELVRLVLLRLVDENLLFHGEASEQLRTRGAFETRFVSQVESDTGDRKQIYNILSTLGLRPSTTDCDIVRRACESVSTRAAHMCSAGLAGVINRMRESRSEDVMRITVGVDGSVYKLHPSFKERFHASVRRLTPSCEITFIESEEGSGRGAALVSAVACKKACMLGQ
T1 sequence (Q14397 1-625): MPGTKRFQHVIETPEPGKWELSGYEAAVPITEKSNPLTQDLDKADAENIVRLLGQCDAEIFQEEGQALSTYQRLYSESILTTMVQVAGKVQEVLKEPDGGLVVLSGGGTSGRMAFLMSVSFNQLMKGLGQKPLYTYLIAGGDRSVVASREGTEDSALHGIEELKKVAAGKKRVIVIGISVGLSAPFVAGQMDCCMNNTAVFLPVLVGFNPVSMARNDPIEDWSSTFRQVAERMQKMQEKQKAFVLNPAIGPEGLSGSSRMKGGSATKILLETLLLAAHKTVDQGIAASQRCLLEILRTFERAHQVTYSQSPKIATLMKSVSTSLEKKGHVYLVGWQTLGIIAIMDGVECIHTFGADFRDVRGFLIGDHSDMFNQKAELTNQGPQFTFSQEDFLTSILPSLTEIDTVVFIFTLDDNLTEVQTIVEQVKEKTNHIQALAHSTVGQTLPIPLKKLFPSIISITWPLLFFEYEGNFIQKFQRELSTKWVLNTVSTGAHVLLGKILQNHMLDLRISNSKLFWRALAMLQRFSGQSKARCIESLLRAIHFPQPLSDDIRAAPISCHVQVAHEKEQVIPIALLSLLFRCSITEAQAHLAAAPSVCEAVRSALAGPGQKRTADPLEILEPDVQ
Experimental: A luminescence-based assay was developed for detection of ADP generation by recombinant GST-GCK (ADP-Glo™ Kinase Assay; Promega). Final reaction conditions included 25 mM HEPES, 25 mM KCl, 2 mM MgCl2, 1 mM DTT, 0.025% BSA, 0.01% Tween-20, 5 mM glucose, and concentrations of GST-GCK and FLAG-GKRP as indicated, and the reaction was initiated by addition of ATP to a final concentration of 0.4 mM. The reaction was terminated and luminescence generated using ADP-Glo™ Reagent and Kinase Detection Reagent (both Promega). In 1536-well plate format, luminescence enzyme assay buffer was dispensed (2 µl/well) using a BioRAPTR into white 1536-well medium binding plates and initiated by addition of 1 µl 1.2 mM ATP. After lidded incubation for the times indicated at room temperature, 2.5 µl of ADP-Glo™ Reagent was added to each well and plates were incubated with lidding for 60 minutes at room temperature. Following 5 µl addition per well of Kinase Detection Reagent, plates were incubated with lidding for a further 30 minutes at room temperature before luminescent detection using a ViewLux Microplate Imager (PerkinElmer). For the LOPAC^1280 library screen, column 1 was all components with DMSO (maximum signal) and column 3 was no GCK with DMSO (minimum signal). These two control columns were used for data normalization. The final HTS protocol is in Table S3, and the data have been deposited in PubChem (AID 743206).
(§1) S6P, F1P, and glucose were dissolved in water; GKAs were dissolved in DMSO.
The firefly luciferase enzyme utilizes luciferin and ATP to generate bioluminescence, and the coupling of ATP-dependent kinases to luciferase activity has enabled kinase activity to be measured quantitatively by luminescence measurements in high-throughput screens. The ADP-Glo™ assay, utilizing a two-step luciferase-based ADP-detection protocol, was employed to measure GCK activity ( Figure 1C ). Initial validation was carried out in 384-well plate format, and focused on GCK in the absence of GKRP to test suitability of the ADP-Glo™ format for the GCK enzyme. A titration of 14 GCK concentrations (1.5–100 nM; n = 8 for each concentration) was assessed at 5 mM glucose and 0.4 mM ATP at pH 7.4. The reaction was incubated for 45 minutes at room temperature. To estimate percent conversion of ATP to ADP, mixtures of ATP and ADP (total concentration 0.4 mM) were tested in duplicate, containing 0, 3, 5, 10, 30, 50, 70, and 100% ADP. The luminescence value at 10% ADP corresponded to the luminescence generated by 4 nM GCK (Figure S7). The ADP-Glo™ kit is linear throughout the range tested and provides an excellent range of detection.
The effects of GKRP inhibition were then assessed using the same reaction conditions at pH 7.1. ADP generation was measured using a matrix of five concentrations each of GCK and GKRP (0, 5, 10, 15, and 20 nM) in quadruplicate ( Figure 5A ). Reactions were incubated for 75 minutes. Luminescence of 15 nM GCK was reduced by approximately 60% by 15 nM GKRP, and the mean S/B at 15 nM GCK +15 nM GKRP was 3.7.
Accordingly, the bioluminescence reaction was capable of measuring GCK enzymatic activity and its inhibition by GKRP. We therefore pursued miniaturization of the assay to 1536-well plate format and tested the effects of S6P and F1P in three different assay formats: 0.04 mM ADP in the absence of GCK and GKRP, 4 nM GCK, and 15 nM GCK with 15 nM GKRP ( Figure 5B ). All assays provided robust luminescence signal in the absence of F1P or S6P (S/B >4.0).

[2] = tested on: europium-conjugated rabbit anti-mouse IgG antibody / mouse anti-FLAG XL 665 antibody; assay: IgG HTRF counter-assay; conditions: no GCK or GKRP, mean ± SD
Experimental: as §1
(TIF) Click here for additional data file.

GCK and GKRP = tested on: GCK and GKRP; parameters: method as in PMID 14627435; conditions: enhancement of the interaction of GCK and GKRP; read-out: EC50, previously reported; cited from earlier work

| Structure (SMILES) | LOPAC1280 screen outcome ([1]; 15 nM GCK, 15 nM GKRP) | IC50 [2] [nM] | EC50 ([1]; 15 nM GCK, 15 nM GKRP, 75 minutes, mean ± SD, read-out: EC50 (activation of GCK enzymatic reaction, increase in luminescence)) [nM] | response across formats (ADP only, GCK only, GCK-GKRP) [1] | IC50 ([1]; 15 nM GCK, 15 nM GKRP, 75 minutes, mean ± SD, read-out: IC50 (decrease in luminescence)) [nM] | EC50 (GCK and GKRP) [nM] |
| --- | --- | --- | --- | --- | --- | --- |
| O=C(O)C1=CC(=C(c2ccc(O)c(C(=O)O)c2)c2ccc(O)c(C(=O)O)c2)C=CC1=O [ATA, aurintricarboxylic acid] | inhibitors of the GCK-GKRP interaction | 90 ± 30 | – | – | – | – |
| O=C(COP(=O)(O)O)[C@@H](O)[C@H](O)[C@H](O)CO [F1P, fructose 1-phosphate] | – | – | 1000 ± 200 | dependent on the presence of GKRP | – | – |
| O=P(O)(O)OC[C@@H](O)[C@@H](O)[C@H](O)[C@@H](O)CO [S6P, sorbitol 6-phosphate] | – | – | – | dependent on the presence of GKRP | 5 ± 0.6 | ~500 |
| Cc1ccc(C(=O)Nc2ccc(S(=O)(=O)O)c3cc(S(=O)(=O)O)cc(S(=O)(=O)O)c23)cc1NC(=O)c1cccc(NC(=O)Nc2cccc(C(=O)Nc3cc(C(=O)Nc4ccc(S(=O)(=O)O)c5cc(S(=O)(=O)O)cc(S(=O)(=O)O)c45)ccc3C)c2)c1 [suramin sodium salt] | inhibitors of the GCK-GKRP interaction | 250 ± 70 | – | – | – | – |
